The values below come from patent US20070059364A1, “Active substance combination comprising a compound with npy receptor affinity and a compound with 5-ht6 receptor affinity” (Laboratorios Del Dr. Esteve S.A., priority 2003, published 2007).

Where a name gives a salt, the structure may show the parent alone.

The target in one data set is T1, Neuropeptide Y2 receptor (Rattus norvegicus, UniProt Q9ERC0).
T1 construct: from tissue; host or cells: rat hippocampus membranes (male Wistar rats)
T1 sequence (Q9ERC0 1-381): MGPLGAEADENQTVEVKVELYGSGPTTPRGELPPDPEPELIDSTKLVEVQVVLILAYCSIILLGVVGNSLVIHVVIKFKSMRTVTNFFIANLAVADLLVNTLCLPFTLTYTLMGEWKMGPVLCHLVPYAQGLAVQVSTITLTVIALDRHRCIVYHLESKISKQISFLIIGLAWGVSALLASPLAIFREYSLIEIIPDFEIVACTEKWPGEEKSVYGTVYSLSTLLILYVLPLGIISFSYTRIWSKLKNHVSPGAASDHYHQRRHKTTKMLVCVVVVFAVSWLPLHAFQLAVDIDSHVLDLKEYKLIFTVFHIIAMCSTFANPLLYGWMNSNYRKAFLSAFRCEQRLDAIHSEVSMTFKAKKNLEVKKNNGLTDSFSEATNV
In words: Binding to Neuropeptide Y2, Method (III), [125I]-PYY3-36, rat hypoccampus membranes. The settings on record: [125I]-PYY(3-36). On the procedure: Binding to Neuropeptide Y2
(§1) Male Wistar rats are sacrificed by decapitation, their brains are rapidly removed and the hypoccampus is dissected. Homogenization is performed in cold conditions in the buffer: 120 mM NaCl, 4.7 mM KCl, 2.2 mM CaCl2, 1.2 mM KH2PO4, 1.2 mM MgSO4, 25 mM NaHCO3, 5.5 mM glucose, pH 7.4, by means of a Ultra-Turrax homogenizer for 15 seconds at 13,500 rpm. The ratio between fresh tissue weight and buffer volume is of ten times. The membrane is centrifuged for 10 min at 48,000 g. The supernatant is discarded and the pellet is washed, resuspended and recentrifuged two more times. The final membrane resuspension is performed in the buffer: 120 mM NaCl, 4.7 mM KCl, 2.2 mM CaCl2, 1.2 mM KH2PO4, 1.2 mM MgSO4, 25 mM NaHCO3, 5.5 mM glucose, 0.1% BSA, 0.05% bacitracin, pH 7.4, at a 90 ml/g ratio of fresh issue. […] Incubation volume: 500 μl. […] The filters are cold-washed three times with three milliliters of the same buffer used in homogenization. […] Non-specific binding is determined in the presence of 1 μM of pNPY (Neuropeptide Y of porcine origin). The assays are performed in triplicate.

In data set [1] the target is T2, recombinant human 5HT6 receptor (Homo sapiens, UniProt P50406).
T2 construct: purchased Receptor Biology; host or cells: HEK-293 cell membranes
In words: Binding to the 5HT6 serotonin receptor, [3H]-LSD, HEK-293 cell membranes. How it is done:
Binding to the 5HT6 Serotonin Receptor
The respective part of the literature descriptions is incorporated here by reference and form part of the disclosure. […] The assays are carried out in triplicate.

The target of a further data set is T3, Neuropeptide Y5 receptor (Rattus norvegicus, UniProt Q63634).
T3 construct: from tissue; host or cells: rat brain cortex membranes (male Wistar rats)
T3 sequence (Q63634 1-445): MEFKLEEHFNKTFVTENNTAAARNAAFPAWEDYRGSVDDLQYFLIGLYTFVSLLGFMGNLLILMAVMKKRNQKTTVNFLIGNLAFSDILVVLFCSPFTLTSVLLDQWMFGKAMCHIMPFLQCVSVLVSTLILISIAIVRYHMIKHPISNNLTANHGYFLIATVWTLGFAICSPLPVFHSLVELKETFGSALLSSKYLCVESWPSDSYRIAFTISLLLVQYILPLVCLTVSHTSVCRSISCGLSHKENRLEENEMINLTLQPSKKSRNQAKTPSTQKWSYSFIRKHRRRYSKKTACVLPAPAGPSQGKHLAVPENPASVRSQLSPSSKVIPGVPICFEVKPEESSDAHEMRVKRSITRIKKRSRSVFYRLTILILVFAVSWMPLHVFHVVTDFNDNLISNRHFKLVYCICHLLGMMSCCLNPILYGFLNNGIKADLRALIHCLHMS
In words: Neuropeptide Y5 receptor binding, Method (I), [125I]-PYY3-36 with BIBP 3226, rat cortex membranes. The settings on record: [125I]-PYY(3-36), BIBP 3226 sat. How it is done: as §1, with “the cortex” for “the hypoccampus”, “of twenty” for “of ten”, “recentrifuged three” for “recentrifuged two”, “times.” for “times. The final membrane resuspension is performed in the buffer: 120 mM NaCl, 4.7 mM KCl, 2.2 mM CaCl2, 1.2 mM KH2PO4, 1.2 mM MgSO4, 25 mM NaHCO3, 5.5 mM glucose, 0.1% BSA, 0.05% bacitracin, pH 7.4, at a 90 ml/g ratio of fresh issue.”, “with two” for “with three”

The target of another data set is T4, rat Y5 receptor (Rattus norvegicus, UniProt Q63634).
T4 construct: expressed in transfected cells; host or cells: C6 cells
T4 sequence (Q63634 1-445): T3 sequence (Q63634 1-445)
In words: Neuropeptide Y5 receptor binding, Method (II), [125I]-PYY, C6 cells transfected with rat Y5 receptor. The conditions noted are these: Y5 rat recombinant receptor, cell C6. On the procedure:
Neuropeptide Y5 Receptor Binding Studies:
The experimental protocol follows the method described by Y. Hu, B. T. Bloomquist et al. in Y. Hu, B. T. Bloomquist et al., The Journal of Biological Chemistry, 1996, 271, 26315-26319 with modifications. Cells C6 were transfected with the rat Y5 receptor. The cells were grown under standard culture conditions in 150 cm^2 dishes and they were harvested using a rubber scraper and 10 ml PBS. The cells from five dishes were collected and centrifuged 2.500 g for 5 min. The pellet was washed by resuspending in 3 ml buffer (Tris-HCl 10 mM, pH 7.4), homogenized using a Potter S homogenizer, 10 strokes at 600 rpm and centrifuged in cold conditions at 48.000 g for 20 min (4° C.). The resulting pellet was resuspended in cold 8 ml membrane buffer (Tris-HCl 25 mM, NaCl 120 mM, KCl 5 mM, KH2PO4 1, 2 mM, CaCl2 2, 5 mM, MgSO4 1, 2 mM, BSA 0.15 mg/ml, Bacitracine 0.5 mg/ml, pH 7, 4) and rehomogenized using the Potter S, 10 strokes at 600 rpm. The protein concentration of the used membrane in the incubation was approximately 40 μg/ml. The radioligand is [^125I]-PYY in a concentration of 100 pM. The incubation volume is 200 μl. […] Non-specific binding is determined in the presence of 1 μM of NPY. […]

T2 sequence (P50406 whole entry): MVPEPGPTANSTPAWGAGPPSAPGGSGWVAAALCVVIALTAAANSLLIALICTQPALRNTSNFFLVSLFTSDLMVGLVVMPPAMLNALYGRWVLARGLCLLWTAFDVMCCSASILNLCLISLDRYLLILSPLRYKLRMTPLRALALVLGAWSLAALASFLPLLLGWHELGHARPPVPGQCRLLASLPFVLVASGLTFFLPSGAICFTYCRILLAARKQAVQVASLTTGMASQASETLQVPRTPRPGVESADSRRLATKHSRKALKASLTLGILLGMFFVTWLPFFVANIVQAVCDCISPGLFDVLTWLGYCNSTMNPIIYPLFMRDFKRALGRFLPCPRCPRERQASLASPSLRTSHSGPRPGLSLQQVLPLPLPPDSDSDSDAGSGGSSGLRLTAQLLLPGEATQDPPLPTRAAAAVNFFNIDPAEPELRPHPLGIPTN

One may read the Ki as the dissociation constant of the complex between target and ligand, obtained from inhibition or displacement. One may read the melting point as the temperature of the solid-liquid transition. `Cl.O=C(CN1CCC(N2C(=O)OCc3ccccc32)CC1)Nc1ccc2c(c1)-c1ccccc1C2=O` [Example 3a, 2-[4-(2-oxo-4H-benzo[d][1,3]oxazin-1-yl)-piperidin-1-yl]-N-(9-oxo-9H-fluoren-3-yl)-acetamide hydrochloride] came in with a melting point of more than 275 °C. Besides, the inhibitory constant (Ki) at Neuropeptide Y2 receptor is more than 1000 nM.

A word on the inhibition: it is the drop in the measured response relative to a control, in per cent. On to `CN(C)CCn1ccc2c(NS(=O)(=O)CCc3cccc4ccccc34)cccc21` [Example 5d, N-[1-(2-dimethylaminoethyl)-1H-indole-4-yl]-2-(naphthalene-1-yl)-ethanesulfonamide], for which the melting point is 47 to 54 °C. The inhibition at 1 µM in data set [1] (10^−6 M, compounds of general formula (Id), Table 1d) worked out at 98.1%.

As for `CN(C)CCn1ccc2ccc(NS(=O)(=O)c3ccc(-c4ccccc4)cc3)cc21` [Example 5f, N-[1-(2-Dimethylaminoethyl)-1H-indol-6-yl]-4-phenylbenzenesulfonamide], the inhibition constant Ki in data set [1] (compounds of general formula (If), Table 1f) amounted to 129 nM.

`O=C(CN1CCC(N2C(=O)OCc3ccccc32)CC1)Nc1ccc2c(c1)CCCC2=O` [Example 6a, 2-[4-(2-oxo-4H-benzo[d][1,3]oxazin-1-ylipiperidin-1-yl]-N-(5-oxo-5,6,7,8-tetrahidro-naphthalene-2-yl)-acetamide hydrochloride]: the Ki at Neuropeptide Y2 receptor was more than 1000 nM; at Neuropeptide Y5 receptor, 18.4 nM.

Consider `Cc1ccc2c(c1)COC(=O)N2C1CCN(CC(=O)Nc2ccc3c(c2)-c2ccccc2C3=O)CC1.Cl` [Example 20a, 2-[4-(6-methyl-2-oxo-4H-benzo[d][1,3]oxazin-1-yl)-piperidin-1-yl]-N-(9-oxo-9H-fluoren-3-yl)-acetamide hydrochloride], for which the melting point is 250 to 252 °C. This compound also displayed an inhibition constant (Ki) at Neuropeptide Y2 receptor of more than 1000 nM.

With `CN(C)CCn1ccc2cc(NS(=O)(=O)c3csc4ccccc34)ccc21` [Example 42e, N-(1-(2-(dimethylamino)ethyl)-1H-indol-5-yl)benzo[b]thiophene-3-sulfonamide], the melting point lay in the range of 61 to 72 °C.

In the case of `CCN(CC)CCCc1c[nH]c2ccc(NS(=O)(=O)c3sc4ccc(Cl)cc4c3C)cc12` [Example 43c, N-[3-(3-diethylaminopropyl)-1H-indol-5-yl]-5-chloro-3-methylbenzo[b]thiophene-2-sulphonamide], the melting point fell in the range of 156 to 158 °C.

`Cc1c(S(=O)(=O)Nc2ccc3c(ccn3CCCN3CCCCC3)c2)sc2ccc(Cl)cc12` [Example 43e, 5-chloro-3-methyl-N-(1-(3-(piperidin-1-yl)propyl)-1H-indol-5-yl)benzo[b]thiophene-2-sulfonamide] gave a melting point of 82 to 92 °C.

`O=S(=O)(Nc1ccc2c(ccn2CCCN2CCCCC2)c1)c1cccc2ccccc12` [Example 45e, N-(1-(3-(piperidin-1-yl)propyl)-1H-indol-5-yl)naphthalene-1-sulfonamide] returned a melting point of 105 to 107 °C.

The compound `O=S(=O)(Nc1ccc2c(ccn2CCCN2CCCCC2)c1)c1ccc(-c2ccccc2)cc1` [Example 47e, 4-phenyl-N-(1-(3-(piperidin-1-yl)propyl)-1H-indol-5-yl)benzenesulfonamide] yielded a melting point of 148 to 150 °C.

The compound `O=S(=O)(CCc1cccc2ccccc12)Nc1ccc2c(ccn2CCCN2CCCCC2)c1` [Example 48e, 2-(naphth-1-yl)-N-(1-(3-(piperidin-1-yl)propyl)-1H-indol-5-yl)ethanesulfonamide] had a melting point of 59 to 61 °C.

The compound `O=S(=O)(Nc1ccc2c(ccn2CCCN2CCCCC2)c1)c1ccc(Oc2ccccc2)cc1` [Example 49e, 4-phenoxy-N-(1-(3-(piperidin-1-yl)propyl)-1H-indol-5-yl)benzenesulfonamide] gave a melting point of 64 to 66 °C.

`O=S(=O)(Nc1ccc2[nH]cc(CCN3CCOCC3)c2c1)c1ccc(-c2ccccc2)cc1` [Example 51c, N-{3-[2-(morpholin-4-yl)ethyl]-1H-indol-5-yl}-4-phenylbenzenesulphonamide] had a melting point of 225 to 228 °C.

Compound `O=S(=O)(Nc1ccc2c(ccn2CCCN2CCCCC2)c1)c1cc(Cl)c(Cl)s1` [Example 51e, 4,5-dichloro-N-(1-(3-(piperidin-1-yl)propyl)-1H-indol-5-yl)thiophene-2-sulfonamide] had a melting point of 70 to 72 °C.

`O=S(=O)(Nc1ccc2c(ccn2CCCN2CCCCC2)c1)c1cccc2c(Cl)cccc12` [Example 52e, 5-chloro-N-(1-(3-(piperidin-1-yl)propyl)-1H-indol-5-yl)naphthalene-1-sulfonamide]: the melting point was 92 to 96 °C.

`CN1CCN(CCc2c[nH]c3ccc(NS(=O)(=O)c4cccc5c(Cl)cccc45)cc23)CC1` [Example 53c, N-[3-(4-methylpiperazin-1-yl)ethyl-1H-indol-5-yl]-5-chloronaphthalene-1-sulphonamide]: the melting point lay in the range of 246 to 249 °C.

One may read the IC50 as the concentration at which inhibition is half-maximal. `O=C(CN1CCC(N2C(=O)OCc3cc(F)ccc32)CC1)Nc1ccc2ncccc2c1` [Example 111a, 2-[4-(6-Fluoro-2-oxo-4H-benzo[d][1,3]oxazin-1-yl)-piperidin-1-yl]-N-quinolin-6-yl-acetamide]: at rat Y5 receptor, the IC50 came out at 7.7 nM.
